US12391737B2, “Soluble NPY2 receptor agonists” (Boehringer Ingelheim International GmbH, priority 2020, dated 2025)
*1 amine or outer side, *2 acyl side, *3 side chain or, on linkers, in order; H or OH if unused. Where a SMILES comes first, the peptide text is derived from it. Side-chain parts run from the residue outwards. The star is where a group is joined. C18 diacid = O=C(O)CCCCCCCCCCCCCCCCC(=O)*; γGlu = O=C(O)[C@H](CCC(=O)[*:2])N[*:1]; Isovaleryl = CC(C)CC(=O)*; Ahx = NCCCCCC(=O)O

How the values were obtained:
[1] = biological target: T1, Human Neuropeptide Y2 Receptor (Homo sapiens, UniProt P49146); test: Radioligand binding competition assay (RLB); conditions: Table 3, 125I-PYY(1-36) competition; read-out: Ki
T1 construct: purchased CHEMICON HTS066M
T1 sequence (P49146 1-381): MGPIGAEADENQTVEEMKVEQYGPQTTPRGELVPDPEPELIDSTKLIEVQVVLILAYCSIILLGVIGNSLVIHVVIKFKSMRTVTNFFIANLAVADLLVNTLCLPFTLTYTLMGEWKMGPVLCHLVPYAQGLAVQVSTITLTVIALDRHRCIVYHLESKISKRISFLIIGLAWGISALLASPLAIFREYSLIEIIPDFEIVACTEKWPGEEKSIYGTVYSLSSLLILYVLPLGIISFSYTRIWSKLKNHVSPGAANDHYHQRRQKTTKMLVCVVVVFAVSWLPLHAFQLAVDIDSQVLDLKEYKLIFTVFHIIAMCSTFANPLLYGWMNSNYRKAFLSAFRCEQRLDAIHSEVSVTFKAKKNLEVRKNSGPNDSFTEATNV
Method: The filtration RLB assay was carried out in 96-well plates in a final volume of 100 μl per well. Freeze-dried test peptides were dissolved in 100% dimethyl sulfoxide (DMSO) to stock solutions of 1 mM and serial dilutions were performed in assay buffer (50 mM HEPES, 5 mM MgCl2, 1 mM CaCl2, pH 7.4) containing 0.2% ovalbumin. […] Next, 80 μL membranes (HTS066M, ChemiSCREEN™ Human Neuropeptide Y2 Receptor Membrane Preparation, CHEMICON) were added to each well to give a final protein concentration of 0.5 μg/well. The plates were sealed and incubated at room temperature for 2 hours in a plate shaker set at 400 rpm. The incubation was stopped by vacuum filtration onto 0.5% polyethylene amine (PE) presoaked GF/C filters using a 96-well FilterMate™ harvester (Perkin Elmer) followed by four washes with 300 μl/well ice-cold wash buffer (50 mM HEPES, 500 mM NaCl, pH7.4). Filter plates were then dried for 60 min at room temperature and the bottom of the plates was sealed with backing tape UniFilter-96. Finally, 50 μl/well scintillation counter cocktail (Microscint20, Packard) was added and the radioactivity was counted in the Packard TopCount NXT scintillation counter. IC50 values (the half maximal inhibitory concentration of the agonist) were calculated by nonlinear regression analysis of sigmoidal dose-response curves.

[2] = Solubility determination; conditions: for Sol6: pH 6; for Sol7: pH 7
Method in brief: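 Sample: TFA-salt peptide at 10 mg/ml target in 0.1 M Na diphosphate, pH 6.4 or 7.0, shaken 2 h RT, filtered, diluted to 1 mg/ml.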

Compound	Ki [1] [nM]	Sol6 [2] [mg/mL]	Sol7 [2] [mg/mL]
CC(C)CC(=O)N[C@@H](C)C(=O)N1CCC[C@H]1C(=O)N[C@@H](CCC(=O)O)C(=O)N[C@@H](CCCCNC(=O)CCCCCNC(=O)CC[C@H](NC(=O)CCCCCCCCCCCCCCCCC(=O)O)C(=O)O)C(=O)N1CCC[C@H]1C(=O)N[C@@H](CCC(=O)O)C(=O)N[C@@H](CCC(=O)O)C(=O)N[C@@H](CC(=O)O)C(=O)N[C@@H](C)C(=O)N[C@@H](CO)C(=O)N[C@@H](C)C(=O)N[C@@H](CCC(=O)O)C(=O)N[C@@H](CCC(=O)O)C(=O)N[C@@H](CC(C)C)C(=O)N[C@@H](CCC(N)=O)C(=O)N[C@@H](CCC(N)=O)C(=O)N[C@@H](Cc1ccc(O)cc1)C(=O)N[C@@H](Cc1ccc(O)cc1)C(=O)N[C@H](C(=O)N[C@@H](CO)C(=O)N[C@@H](CC(C)C)C(=O)N[C@@H](CCCNC(=N)N)C(=O)N[C@@H](Cc1c[nH]cn1)C(=O)N[C@@H](Cc1ccc(O)cc1)C(=O)N[C@@H](Cc1ccc(O)cc1)C(=O)N[C@@H](CC(N)=O)C(=O)N[C@@H](Cc1c[nH]c2ccccc12)C(=O)N[C@@H](CC(C)C)C(=O)N[C@H](C(=O)N[C@@H](CCCNC(=N)N)C(=O)N[C@@H](CCC(N)=O)C(=O)N[C@@H](CCCNC(=N)N)C(=O)N[C@@H](Cc1ccc(O)cc1)C(N)=O)[C@@H](C)O)C(C)C [Compound 34, N{alpha-4}-(3-methylbutanoyl)-N{epsilon-7}-(6-[(4S)-4-carboxy-4-(17-carboxyheptadecanamido)butanamido]hexanoyl)[4A,7K,9E,14A,18Q,19Q,22V,28Y,30W,31L]-hPYY(4-36)]	3.53	9.2	9.1
CC(C)CC(=O)N[C@@H](C)C(=O)N1CCC[C@H]1C(=O)N[C@@H](CCC(=O)O)C(=O)N[C@@H](CCCCNC(=O)CCCCCNC(=O)CC[C@H](NC(=O)CCCCCCCCCCCCCCCCC(=O)O)C(=O)O)C(=O)N1CCC[C@H]1C(=O)N[C@@H](CCC(=O)O)C(=O)N[C@@H](CCC(=O)O)C(=O)N[C@@H](CC(=O)O)C(=O)N[C@@H](C)C(=O)N[C@@H](CCC(=O)O)C(=O)N1CCC[C@H]1C(=O)N[C@@H](CCC(=O)O)C(=O)N[C@@H](CCC(=O)O)C(=O)N[C@@H](CC(C)C)C(=O)N[C@@H](CCC(N)=O)C(=O)N[C@@H](CCC(=O)O)C(=O)N[C@@H](Cc1ccc(O)cc1)C(=O)N[C@@H](Cc1ccc(O)cc1)C(=O)N[C@H](C(=O)N[C@@H](CO)C(=O)N[C@@H](CC(C)C)C(=O)N[C@@H](CCCNC(=N)N)C(=O)N[C@@H](Cc1c[nH]cn1)C(=O)N[C@@H](Cc1ccc(O)cc1)C(=O)N[C@@H](Cc1ccc(O)cc1)C(=O)N[C@@H](CC(N)=O)C(=O)N[C@@H](Cc1c[nH]c2ccccc12)C(=O)N[C@@H](CC(C)C)C(=O)N[C@H](C(=O)N[C@@H](CCCNC(=N)N)C(=O)N[C@@H](CCC(N)=O)C(=O)N[C@@H](CCCNC(=N)N)C(=O)N[C@@H](Cc1ccc(O)cc1)C(N)=O)[C@@H](C)O)C(C)C [Compound 138, N{alpha-4}-(3-methylbutanoyl)-N{epsilon-7}-(6-[(4S)-4-carboxy-4-(17-carboxyheptadecanamido)butanamido]hexanoyl)-[4A,7K,9E,13E,18Q,19E,22V,28Y,30W,31L]-hPYY(4-36)]	12.5	9.9	9.5
CC[C@H](C)[C@H](NC(=O)[C@H](CCC(=O)O)NC(=O)[C@H](CCC(=O)O)NC(=O)[C@@H]1CCCN1C(=O)[C@@H](NC(=O)[C@H](C)NC(=O)[C@H](C)NC(=O)[C@H](C)NC(=O)[C@H](CCC(=O)O)NC(=O)[C@@H]1CCCN1C(=O)[C@H](CCCCNC(=O)CCCCCNC(=O)CC[C@H](NC(=O)CCCCCCCCCCCCCCCCC(=O)O)C(=O)O)NC(=O)[C@H](CCC(=O)O)NC(=O)[C@@H]1CCCN1C(=O)[C@H](C)NC(=O)CC(C)C)[C@@H](C)O)C(=O)N[C@@H](CCC(N)=O)C(=O)N[C@@H](CCCNC(=N)N)C(=O)N[C@@H](Cc1ccc(O)cc1)C(=O)N[C@@H](Cc1ccc(O)cc1)C(=O)N[C@H](C(=O)N[C@@H](C)C(=O)N[C@@H](CC(C)C)C(=O)N[C@@H](CCCNC(=N)N)C(=O)N[C@@H](Cc1c[nH]cn1)C(=O)N[C@@H](Cc1ccc(O)cc1)C(=O)N[C@@H](Cc1ccc(O)cc1)C(=O)N[C@@H](CC(N)=O)C(=O)N[C@@H](Cc1c[nH]c2ccccc12)C(=O)N[C@@H](CC(C)C)C(=O)N[C@H](C(=O)N[C@@H](CCCNC(=N)N)C(=O)N[C@@H](CCC(N)=O)C(=O)N[C@@H](CCCNC(=N)N)C(=O)N[C@@H](Cc1ccc(O)cc1)C(N)=O)[C@@H](C)O)C(C)C [Compound 178, N{alpha-4}-(3-methylbutanoyl)-N{epsilon-7}-(6-[(4S)-4-carboxy-4-(17-carboxyheptadecanamido)butanamido]hexanoyl)-[4A,7K,9E,10A,11A,13T,17I,18Q,22V,23A,28Y,30W,31L]-hPYY(4-36)]	3.39	0.0	0.4

The next molecules have a lower Ki [1] than those just listed; values first:

Ki [1] [nM]	Sol6 [2] [mg/mL]	Sol7 [2] [mg/mL]	Compound
2.73	10.0	10.0	CC(C)CC(=O)N[C@@H](C)C(=O)N1CCC[C@H]1C(=O)N[C@@H](CCC(=O)O)C(=O)N[C@@H](CCCCNC(=O)CCCCCNC(=O)CC[C@H](NC(=O)CCCCCCCCCCCCCCCCC(=O)O)C(=O)O)C(=O)N1CCC[C@H]1C(=O)N[C@@H](CCC(=O)O)C(=O)N[C@@H](CCC(=O)O)C(=O)N[C@@H](CC(=O)O)C(=O)N[C@@H](C)C(=O)N[C@@H](CO)C(=O)N1CCC[C@H]1C(=O)N[C@@H](CCC(=O)O)C(=O)N[C@@H](C)C(=O)N[C@@H](CC(C)C)C(=O)N[C@@H](CCC(N)=O)C(=O)N[C@@H](CCC(=O)O)C(=O)N[C@@H](Cc1ccc(O)cc1)C(=O)N[C@@H](Cc1ccc(O)cc1)C(=O)N[C@H](C(=O)N[C@@H](CO)C(=O)N[C@@H](CC(C)C)C(=O)N[C@@H](CCCNC(=N)N)C(=O)N[C@@H](Cc1c[nH]cn1)C(=O)N[C@@H](Cc1ccc(O)cc1)C(=O)N[C@@H](Cc1ccc(O)cc1)C(=O)N[C@@H](CC(N)=O)C(=O)N[C@@H](Cc1c[nH]c2ccccc12)C(=O)N[C@@H](CC(C)C)C(=O)N[C@H](C(=O)N[C@@H](CCCNC(=N)N)C(=O)N[C@@H](CCC(N)=O)C(=O)N[C@@H](CCCNC(=N)N)C(=O)N[C@@H](Cc1ccc(O)cc1)C(N)=O)[C@@H](C)O)C(C)C [Compound 39, N{alpha-4}-(3-methylbutanoyl)-N{epsilon-7}-(6-[(4S)-4-carboxy-4-(17-carboxyheptadecanamido)butanamido]hexanoyl)[4A,7K,9E,16A,18Q,19E,22V,28Y,30W,31L]-hPYY(4-36)]
1.55	9.3	9.3	CC[C@H](C)[C@H](NC(=O)[C@H](Cc1ccc(O)cc1)NC(=O)[C@H](Cc1ccc(O)cc1)NC(=O)[C@H](CCCNC(=N)N)NC(=O)[C@H](CCC(N)=O)NC(=O)[C@H](CC(C)C)NC(=O)[C@H](CCC(=O)O)NC(=O)[C@H](CCC(=O)O)NC(=O)[C@@H]1CCCN1C(=O)[C@@H](NC(=O)[C@H](C)NC(=O)[C@H](CC(=O)O)NC(=O)[C@H](C)NC(=O)[C@H](CCC(=O)O)NC(=O)[C@@H]1CCCN1C(=O)[C@H](CCCCNC(=O)CCCCCNC(=O)CC[C@H](NC(=O)CCCCCCCCCCCCCCCCC(=O)O)C(=O)O)NC(=O)[C@H](CCC(=O)O)NC(=O)[C@@H]1CCCN1C(=O)[C@H](C)NC(=O)CC(C)C)[C@@H](C)O)C(=O)N[C@@H](CO)C(=O)N[C@@H](CC(C)C)C(=O)N[C@@H](CCCNC(=N)N)C(=O)N[C@@H](Cc1c[nH]cn1)C(=O)N[C@@H](Cc1ccc(O)cc1)C(=O)N[C@@H](Cc1ccc(O)cc1)C(=O)N[C@@H](CC(N)=O)C(=O)N[C@@H](Cc1c[nH]c2ccccc12)C(=O)N[C@@H](CC(C)C)C(=O)N[C@H](C(=O)N[C@@H](CCCNC(=N)N)C(=O)N[C@@H](CCC(N)=O)C(=O)N[C@@H](CCCNC(=N)N)C(=O)N[C@@H](Cc1ccc(O)cc1)C(N)=O)[C@@H](C)O [Compound 25, N{alpha-4}-(3-methylbutanoyl)-N{epsilon-7}-(6-[(4S)-4-carboxy-4-(17-carboxyheptadecanamido)butanamido]hexanoyl)[4A,7K,9E,10A,13T,18Q,22I,28Y,30W,31L]-hPYY(4-36)] (Isovaleryl-APEK([Ahx-γGlu-C18 diacid])PEADATPEELQRYYISLRHYYNWLTRQRY-NH2)
